Experimental findings from BindingDB's records for patent US12115157 (Boehringer Ingelheim International, 2024) are described below.

In general, EC50 refers to the concentration needed to bring the measured effect to its halfway point.

Sequence of G-protein coupled receptor 52 (Q9Y2T5 whole entry): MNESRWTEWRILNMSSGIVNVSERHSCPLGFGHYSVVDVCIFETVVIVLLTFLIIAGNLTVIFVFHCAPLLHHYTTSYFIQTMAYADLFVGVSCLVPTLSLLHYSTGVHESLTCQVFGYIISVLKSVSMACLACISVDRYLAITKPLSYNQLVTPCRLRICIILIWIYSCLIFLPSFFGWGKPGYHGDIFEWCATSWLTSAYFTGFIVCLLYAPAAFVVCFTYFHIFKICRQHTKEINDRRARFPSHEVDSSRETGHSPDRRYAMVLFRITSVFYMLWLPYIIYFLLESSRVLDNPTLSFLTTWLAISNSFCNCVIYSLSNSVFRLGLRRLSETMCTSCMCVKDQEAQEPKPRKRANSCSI

The experiment addresses G-protein coupled receptor 52 (Homo sapiens, UniProt Q9Y2T5). As to the kind of experiment: Homogeneous Time-Resolved Fluorescence (HTRF) Assay. The procedure:
HTRF cAMP assays were performed using commercially available assay kits according to the manufacturer's instructions (cAMP Dynamic 2 Assay Kit; #62AM4PEJ, Cisbio Bioassays, Bedford, MA). An aliquot of CHO-K1 cells stably expressing recombinant human GPR52 was thawed and resuspended in cell buffer (1×PBS (w/o Ca2+/Mg2+)) at a density of 4×10^5 cells per mL. Test compounds were solubilized in DMSO to 10 mM stock solutions and serially diluted in DMSO using 6-fold dilutions to generate 8-point dose response curves. These serially diluted samples were then diluted 1:50 in compound dilution buffer (1×PBS (w/o Ca2+/Mg2+) containing 0.5 mM IBMX, 0.1% BSA) to achieve a 4× stock. The diluted compounds were transferred (5 μL per well) in duplicate to the 384-well assay plate (Optiplate #6007290, PerkinElmer, Waltham, MA). Both a positive (reference compound) and negative (non-stimulated vehicle) control was included in each assay run in column 23. The cell suspension was subsequently dispensed into the 384-well assay plates at 15 μL per well (6000 cells) such that the compound was diluted to 1×. […] After a one-hour incubation at room temperature, 10 μL of cAMP D2 reagent followed by 10 μL of cryptate reagent (provided in the Cisbio kit) was added to each well. Plates were then incubated at room temperature for one hour prior to reading. Time-resolved fluorescence measurements were collected on an EnVision HTRF plate reader (PerkinElmer, Waltham, MA).
(TR-FRET usually uses a lanthanide donor and a delayed reading to cut background.)
`CC(=O)N1C[C@H](NC(=O)c2nccnc2N2CC(Oc3ccc(F)c(F)c3)C2)C(F)(F)C1` [US12115157, Ex. 8b] showed a concentration for a half-maximal effect (EC50) of 7 nM. That is a single-digit nanomolar value.

Take `CC(=O)N1C[C@@H](NC(=O)c2nccnc2N2CC(Oc3cc(F)c(F)c(F)c3)C2)C(F)(F)C1` [US12115157, Ex. 11a]: a half-maximal response (EC50) required 1280 nM. The figure for `CC(=O)N1C[C@H](NC(=O)c2nsnc2N2CC(Oc3ccc(F)c(F)c3)C2)C(F)(F)C1` [US12115157, Ex. 13b] is 3 nM. In the case of `CC(=O)N1C[C@@H](NC(=O)c2nccnc2N2CC(Oc3ccc(F)c(F)c3)C2)C(F)(F)C1` [US12115157, Ex. 8a] it was 1090 nM; in that of `CC(=O)N1C[C@H](NC(=O)c2nccnc2N2CC(Oc3cc(F)c(F)c(F)c3)C2)C(F)(F)C1` [US12115157, Ex. 11b], 10 nM; in that of `CC(=O)N1C[C@@H](NC(=O)c2nsnc2N2CC(Oc3ccc(F)c(F)c3)C2)C(F)(F)C1` [US12115157, Ex. 13a], 595 nM.
